Results: patent publication US20130165368A1, “ANTIMICROBIAL COMPOUNDS” (priority 2010, published 2013)
≈ marks a conversion by molar mass, not a printed value.

What follows are compounds tested on Escherichia coli (assay: MIC agar dilution, micro-organism 1 (10418)). Conditions: Escherichia coli 10418; 22 hrs.
Format: cell-based
How it was run: (§1)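 Twofold dilutions of compound emulsions in water were set in Isosensitest agar with Brazier's CCEY medium, egg yolk and lysed horse blood. Spots of 1 µL from 0.5 McFarland suspensions diluted 1/15 were incubated aerobically at 37 °C and read at 22 and 48 h. MIC (mmol/L) was the lowest concentration giving <10 colonies.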
`CCCCCCCCCCCCCOCCOCCOCCOCCOCCOCCO` [C13E6, polyoxyethylene (6) tridecyl alcohol] was tested, and the MIC was greater than 880 µM.

Same assay, conditions: Escherichia coli 10418; 22 hrs; read-out: MIC
`CCCCCCCCCCCCOCCOCCOCCOCCOCCOCCOCCO` [L7, Heptaethylene Glycol Monododecyl Ether] gave an MIC greater than 880 µM.

Same assay, conditions: Escherichia coli 10418; 48 hrs
In the case of `CCCCCCCCCCCCCOCCOCCOCCOCCOCCOCCO` [C13E6, polyoxyethylene (6) tridecyl alcohol], the MIC is reported as greater than 880 µM.

Same assay, conditions: Escherichia coli 10418; 48 hrs; read-out: MIC
`CCCCCCCCCCCCOCCOCCOCCOCCOCCOCCOCCO` [L7, Heptaethylene Glycol Monododecyl Ether] gave an MIC greater than 880 µM.

Each compound was assayed on Providencia rettgeri (assay: MIC agar dilution, micro-organism 3 (7475)). Conditions: Providencia rettgeri 7475; 22 hrs.
Format: cell-based
How it was run: as §1
Compound `CCCCCCCCCCCCCOCCOCCOCCOCCOCCOCCO` [C13E6, polyoxyethylene (6) tridecyl alcohol] has an MIC greater than 880 µM.

Same assay, conditions: Providencia rettgeri 7475; 22 hrs; read-out: MIC
In the case of `CCCCCCCCCCCCOCCOCCOCCOCCOCCOCCOCCO` [L7, Heptaethylene Glycol Monododecyl Ether], the MIC is reported as greater than 880 µM.

Same assay, conditions: Providencia rettgeri 7475; 48 hrs
With `CCCCCCCCCCCCCOCCOCCOCCOCCOCCOCCO` [C13E6, polyoxyethylene (6) tridecyl alcohol] the MIC was greater than 880 µM.

Same assay, conditions: Providencia rettgeri 7475; 48 hrs; read-out: MIC
In the case of `CCCCCCCCCCCCOCCOCCOCCOCCOCCOCCOCCO` [L7, Heptaethylene Glycol Monododecyl Ether], the MIC is reported as greater than 880 µM.

What follows are compounds tested on Enterococcus faecium (assay: MIC agar dilution, micro-organism 16 (7171)). Conditions: Enterococcus faecium 7171; 22 hrs.
Format: cell-based
How it was run: as §1
Compound `CCCCCCCCCCCCCOCCOCCOCCOCCOCCOCCO` [C13E6, polyoxyethylene (6) tridecyl alcohol] has an MIC greater than 880 µM.

Same assay, conditions: Enterococcus faecium 7171; 22 hrs; read-out: MIC
`CCCCCCCCCCCCOCCOCCOCCOCCOCCOCCOCCO` [L7, Heptaethylene Glycol Monododecyl Ether] gave an MIC greater than 880 µM.

Same assay, conditions: Enterococcus faecium 7171; 48 hrs
With `CCCCCCCCCCCCCOCCOCCOCCOCCOCCOCCO` [C13E6, polyoxyethylene (6) tridecyl alcohol] the MIC was greater than 880 µM.

Same assay, conditions: Enterococcus faecium 7171; 48 hrs; read-out: MIC
Work on `CCCCCCCCCCCCOCCOCCOCCOCCOCCOCCOCCO` [L7, Heptaethylene Glycol Monododecyl Ether] yielded an MIC greater than 880 µM.

The compounds below were run on Enterococcus faecalis (assay: MIC agar dilution, micro-organism 17 (775)). Conditions: Enterococcus faecalis 775; 22 hrs.
Format: cell-based
How it was run: as §1
Work on `CCCCCCCCCCCCCOCCOCCOCCOCCOCCOCCO` [C13E6, polyoxyethylene (6) tridecyl alcohol] yielded an MIC of 110 µM (≈ 51.1 µg/mL).

Same assay, conditions: Enterococcus faecalis 775; 22 hrs; read-out: MIC
With `CCCCCCCCCCCCOCCOCCOCCOCCOCCOCCOCCO` [L7, Heptaethylene Glycol Monododecyl Ether] the MIC was 110 µM (≈ 54.4 µg/mL).

Same assay, conditions: Enterococcus faecalis 775; 48 hrs
Compound `CCCCCCCCCCCCCOCCOCCOCCOCCOCCOCCO` [C13E6, polyoxyethylene (6) tridecyl alcohol] has an MIC of 110 µM (≈ 51.1 µg/mL).

Same assay, conditions: Enterococcus faecalis 775; 48 hrs; read-out: MIC
In the case of `CCCCCCCCCCCCOCCOCCOCCOCCOCCOCCOCCO` [L7, Heptaethylene Glycol Monododecyl Ether], the MIC is reported as 110 µM (≈ 54.4 µg/mL).

What follows are compounds tested on Bacillus subtilis (assay: MIC agar dilution, micro-organism 18 (9372)). Conditions: Bacillus subtilis 9372; 22 hrs.
Format: cell-based
How it was run: as §1
`CCCCCCCCCCCCCOCCOCCOCCOCCOCCOCCO` [C13E6, polyoxyethylene (6) tridecyl alcohol] gave an MIC of 110 µM (≈ 51.1 µg/mL).

Same assay, conditions: Bacillus subtilis 9372; 22 hrs; read-out: MIC
`CCCCCCCCCCCCOCCOCCOCCOCCOCCOCCOCCO` [L7, Heptaethylene Glycol Monododecyl Ether] was tested, and the MIC was 110 µM (≈ 54.4 µg/mL).

Same assay, conditions: Bacillus subtilis 9372; 48 hrs
`CCCCCCCCCCCCCOCCOCCOCCOCCOCCOCCO` [C13E6, polyoxyethylene (6) tridecyl alcohol] was tested, and the MIC was 110 µM (≈ 51.1 µg/mL).

Same assay, conditions: Bacillus subtilis 9372; 48 hrs; read-out: MIC
For `CCCCCCCCCCCCOCCOCCOCCOCCOCCOCCOCCO` [L7, Heptaethylene Glycol Monododecyl Ether], the MIC was 110 µM (≈ 54.4 µg/mL).

The compounds below were run on Candida albicans (assay: MIC agar dilution, micro-organism 19 (90028)). Conditions: Candida albicans 90028; 22 hrs.
Format: cell-based
How it was run: as §1
`CCCCCCCCCCCCCOCCOCCOCCOCCOCCOCCO` [C13E6, polyoxyethylene (6) tridecyl alcohol] showed an MIC greater than 880 µM.

Same assay, conditions: Candida albicans 90028; 22 hrs; read-out: MIC
Compound `CCCCCCCCCCCCOCCOCCOCCOCCOCCOCCOCCO` [L7, Heptaethylene Glycol Monododecyl Ether] has an MIC greater than 880 µM.

Same assay, conditions: Candida albicans 90028; 48 hrs
`CCCCCCCCCCCCCOCCOCCOCCOCCOCCOCCO` [C13E6, polyoxyethylene (6) tridecyl alcohol] showed an MIC greater than 880 µM.

Same assay, conditions: Candida albicans 90028; 48 hrs; read-out: MIC
For `CCCCCCCCCCCCOCCOCCOCCOCCOCCOCCOCCO` [L7, Heptaethylene Glycol Monododecyl Ether], the MIC was greater than 880 µM.

Each compound was assayed on Enterococcus faecium (VRE) MB 305 (assay: MIC agar dilution, VRE strain 25). Conditions: 22 hrs.
Format: cell-based
Protocol: (§2) Molar equivalent concentrations were used to allow comparison between compounds of differing molecular mass. Due to weighing difficulties, any compound in solid form was melted in a water bath prior to dilution. To make ten-times strength concentrations, which takes into account agar dilution, 0.0352 mmol of each compound was weighed into plastic universal bottles and 4 mL of sterile distilled water (SDW) was added. To produce a homogenous emulsion the universals were vortexed; once achieved the emulsions were serial diluted by adding 2 mL to 2 mL of SDW.
(§3) For every 100 mL of Isosensitest agar (IST) (CM0471; Oxoid, Basingstoke, England), 3.1 g of the IST powder was added to 100 mL SDW (as per manufacturer's instructions) and sterilised for 15 minutes at 121° C. Once sterilised, the molten agar was cooled to 50° C. in a water-bath. Subsequently 4.8 g of CCEY powder (BC2160; Bioconnections, Wetherby, England), also known as Brazier's medium, was added to 100 mL SDW for every 100 mL of agar needed. This was then sterilised for 15 minutes at 121° C. Once sterilised the molten agar was cooled to 50° C. in a water-bath and 4 mL of egg-yolk emulsion (S2073; TCS Biosciences Ltd, Buckingham, United Kingdom) and 1 mL of lysed defibrinated horse blood (HB035; TCS Biosciences Ltd, Buckingham, United Kingdom) were also added for every 100 mL needed. Horse blood lysis is achieved by dilution to half concentration with SDW; when fully lysed the mixture will turn dark red in colour.
(§4) 18 mL agar was added to each universal and then poured into sterile Petri dishes. This step creates a 1/10 dilution resulting in agar plates of the required strength. Control plates for each set of strains were created by adding 18 mL of agar to 2 mL of SDW.
(§5) Suspensions of each bacterial species were prepared with a density equal to that of a 0.5 McFarland standard using a densitometer. All suspensions were made using sterile distilled water and fresh 18-20 hour cultures. As a 0.5 McFarland standard contains 1.5×10^8 CFU/mL and the multipoint inoculators applies 1 μL spots of liquid, each bacterial suspension was diluted 1/15 (20 μL suspension to 280 μL sterile distilled water).
(§6) Bacterial suspensions were prepared from fresh 18-24 hour cultures as previously described. 1 μL of each strain was inoculated onto all 100 agar plates containing a different chemical concentration and the 2 control plates. This was done using a multipoint inoculator which inoculates 20 strains per plate. All plates were incubated for 22 hours at 37° C. in aerobic conditions.
(§7) Each plate was examined for bacterial growth after 22 and 48 hours, with each being incubated in between examinations. A positive result was recorded as growth of ≧10 colonies. A negative result was recorded as growth of <10 colonies as this is equivalent to 99.9% inhibition. The lowest concentration of chemical that inhibited growth was recorded as the MIC. The results are recorded in Table IV below, where the numbers are quoted in mmol/L.
(§8) Given the positive performance of the ethoxylates of lauryl alcohol in reducing the MIC for a number of the micro-organisms tested, further MIC testing of Laureth-1 [C12E1] through to Laureth-8 [C12E8] was conducted on each of the following: • 10 strains of vancomycin-resistant enterococci (VRE)—listed in Table V below; and • 20 strains of methicillin-resistant Staphylococcus aureus (MRSA)—listed in Table VI.
(§9) The alkanol, alkanol derivatives, agar plates, and inocula were all prepared in the same way as described above.
(§10) The plates were examined in the same manner as described above and the results are recorded in Table VII below, where the numbers are quoted in mmol/L.
`CCCCCCCCCCCCOCCOCCOCCOCCOCCOCCOCCO` [L7, Heptaethylene Glycol Monododecyl Ether] was tested, and the MIC was 220 µM (≈ 109 µg/mL).

Same assay, conditions: 48 hrs
`CCCCCCCCCCCCOCCOCCOCCOCCOCCOCCOCCO` [L7, Heptaethylene Glycol Monododecyl Ether] gave an MIC of 220 µM (≈ 109 µg/mL).

Each compound was assayed on Enterococcus faecium (VRE) MB310 (assay: MIC agar dilution, VRE strain 29). Conditions: 22 hrs.
Format: cell-based
Protocol: as §2, §3, §4, §5, §6, §7, §8, §9, §10
Work on `CCCCCCCCCCCCOCCOCCOCCOCCOCCOCCOCCO` [L7, Heptaethylene Glycol Monododecyl Ether] yielded an MIC of 110 µM (≈ 54.4 µg/mL).

Same assay, conditions: 48 hrs
`CCCCCCCCCCCCOCCOCCOCCOCCOCCOCCOCCO` [L7, Heptaethylene Glycol Monododecyl Ether] gave an MIC of 110 µM (≈ 54.4 µg/mL).

The compounds below were run on MRSA FIN 54518 (E7) (assay: MIC agar dilution, MRSA strain 31). Conditions: Staphylococcus aureus, 22 hrs.
Format: cell-based
Protocol: as §2, §3, §4, §5, §6, §7, §8, §9, §10
`CCCCCCCCCCCCOCCOCCOCCOCCOCCOCCOCCO` [L7, Heptaethylene Glycol Monododecyl Ether] was tested, and the MIC was greater than 440 µM.

Same assay, conditions: Staphylococcus aureus, 48 hrs
Compound `CCCCCCCCCCCCOCCOCCOCCOCCOCCOCCOCCO` [L7, Heptaethylene Glycol Monododecyl Ether] has an MIC greater than 440 µM.

What follows are compounds tested on MRSA FIN 54511 (E6) (assay: MIC agar dilution, MRSA strain 32). Conditions: Staphylococcus aureus, 22 hrs.
Format: cell-based
Protocol: as §2, §3, §4, §5, §6, §7, §8, §9, §10
For `CCCCCCCCCCCCOCCOCCOCCOCCOCCOCCOCCO` [L7, Heptaethylene Glycol Monododecyl Ether], the MIC was 110 µM (≈ 54.4 µg/mL).

Same assay, conditions: Staphylococcus aureus, 48 hrs
Work on `CCCCCCCCCCCCOCCOCCOCCOCCOCCOCCOCCO` [L7, Heptaethylene Glycol Monododecyl Ether] yielded an MIC of 440 µM (≈ 218 µg/mL).

What follows are compounds tested on MRSA GER 1966/97 (Hanover IIIc) (assay: MIC agar dilution, MRSA strain 36). Conditions: Staphylococcus aureus, 22 hrs.
Format: cell-based
Protocol: as §2, §3, §4, §5, §6, §7, §8, §9, §10
With `CCCCCCCCCCCCOCCOCCOCCOCCOCCOCCOCCO` [L7, Heptaethylene Glycol Monododecyl Ether] the MIC was 110 µM (≈ 54.4 µg/mL).

Same assay, conditions: Staphylococcus aureus, 48 hrs
`CCCCCCCCCCCCOCCOCCOCCOCCOCCOCCOCCO` [L7, Heptaethylene Glycol Monododecyl Ether] gave an MIC of 110 µM (≈ 54.4 µg/mL).

Each compound was assayed on MRSA FRA 95035 (assay: MIC agar dilution, MRSA strain 37). Conditions: Staphylococcus aureus, 22 hrs.
Format: cell-based
Protocol: as §2, §3, §4, §5, §6, §7, §8, §9, §10
In the case of `CCCCCCCCCCCCOCCOCCOCCOCCOCCOCCOCCO` [L7, Heptaethylene Glycol Monododecyl Ether], the MIC is reported as greater than 440 µM.

Same assay, conditions: Staphylococcus aureus, 48 hrs
With `CCCCCCCCCCCCOCCOCCOCCOCCOCCOCCOCCO` [L7, Heptaethylene Glycol Monododecyl Ether] the MIC was greater than 440 µM.

Each compound was assayed on MRSA NCTC 11939 (assay: MIC agar dilution, MRSA strain 50). Conditions: Staphylococcus aureus; MRSA strain 50 NCTC 11939; 22 hrs.
Format: cell-based
Protocol: as §2, §3, §4, §5, §6, §7, §8, §9, §10
Work on `CCCCCCCCCCCCOCCOCCOCCOCCOCCOCCOCCO` [L7, Heptaethylene Glycol Monododecyl Ether] yielded an MIC of 110 µM (≈ 54.4 µg/mL).

Same assay, conditions: Staphylococcus aureus; MRSA strain 50 NCTC 11939; 48 hrs
`CCCCCCCCCCCCOCCOCCOCCOCCOCCOCCOCCO` [L7, Heptaethylene Glycol Monododecyl Ether] gave an MIC of 110 µM (≈ 54.4 µg/mL).
